Data as given in ChEMBL document CHEMBL3046289, “Synthesis and in vitro antimicrobial activity of some newer quinazolinonesulfonamide linked hybrid heterocyclic entities derived from glycine” (2013).
In brackets after ≈: the same amount, converted by molar mass.

Columns and labels:
Format in all cases: functional
Candida albicans = assay: Antifungal activity against Candida albicans MTCC 227 assessed as growth inhibition after 48 hr by broth microdilution method; details: MTCC 227, 48 h
Aspergillus niger = assay: Antifungal activity against Aspergillus niger MTCC 282 assessed as growth inhibition after 48 hr by broth microdilution method; details: MTCC 282, 48 h
Klebsiella pneumoniae = assay: Antibacterial activity against Klebsiella pneumoniae MTCC 139 assessed as growth inhibition after 24 hr by broth microdilution method; details: MTCC 139, 24 h
Pseudomonas aeruginosa = assay: Antibacterial activity against Pseudomonas aeruginosa MTCC 1688 assessed as growth inhibition after 24 hr by broth microdilution method; details: MTCC 1688, 24 h
Escherichia coli = assay: Antibacterial activity against Escherichia coli MTCC 443 assessed as growth inhibition after 24 hr by broth microdilution method; details: MTCC 443, 24 h
Bacillus cereus = assay: Antibacterial activity against Bacillus cereus MTCC 1305 assessed as growth inhibition after 24 hr by broth microdilution method; details: MTCC 1305, 24 h
Staphylococcus aureus = assay: Antibacterial activity against Staphylococcus aureus MTCC 2940 assessed as growth inhibition after 24 hr by broth microdilution method; details: MTCC 2940, 24 h

MIC (Candida albicans) | MIC (Aspergillus niger) | MIC (Klebsiella pneumoniae) | MIC (Pseudomonas aeruginosa) | MIC (Escherichia coli) | MIC (Bacillus cereus) | MIC (Staphylococcus aureus) | Compound
70 µg/mL (≈ 145 µM) | 55 µg/mL (≈ 114 µM) | 105 µg/mL (≈ 217 µM) | 70 µg/mL (≈ 145 µM) | 60 µg/mL (≈ 124 µM) | 95 µg/mL (≈ 197 µM) | 65 µg/mL (≈ 135 µM) | CC(=O)Nc1ccc(S(=O)(=O)NCc2nc3ccccc3c(=O)n2-c2cccc(Cl)c2)cc1
70 µg/mL (≈ 142 µM) | 55 µg/mL (≈ 111 µM) | 105 µg/mL (≈ 213 µM) | 90 µg/mL (≈ 182 µM) | 70 µg/mL (≈ 142 µM) | 85 µg/mL (≈ 172 µM) | 80 µg/mL (≈ 162 µM) | CC(=O)Nc1ccc(S(=O)(=O)NCc2nc3ccccc3c(=O)n2-c2ccc([N+](=O)[O-])cc2)cc1
105 µg/mL (≈ 234 µM) | 95 µg/mL (≈ 212 µM) | 130 µg/mL (≈ 290 µM) | 125 µg/mL (≈ 279 µM) | 110 µg/mL (≈ 245 µM) | 115 µg/mL (≈ 256 µM) | 95 µg/mL (≈ 212 µM) | CC(=O)Nc1ccc(S(=O)(=O)NCc2nc3ccccc3c(=O)n2-c2ccccc2)cc1
65 µg/mL (≈ 144 µM) | 55 µg/mL (≈ 122 µM) | 95 µg/mL (≈ 210 µM) | 75 µg/mL (≈ 166 µM) | 70 µg/mL (≈ 155 µM) | 85 µg/mL (≈ 188 µM) | 75 µg/mL (≈ 166 µM) | Nc1ccc(S(=O)(=O)NCc2nc3ccccc3c(=O)n2-c2ccccc2[N+](=O)[O-])cc1
60 µg/mL (≈ 348 µM) | 50 µg/mL (≈ 290 µM) | 80 µg/mL (≈ 465 µM) | 65 µg/mL (≈ 377 µM) | 55 µg/mL (≈ 319 µM) | 55 µg/mL (≈ 319 µM) | 50 µg/mL (≈ 290 µM) | Nc1ccc(S(N)(=O)=O)cc1 [SULFANILAMIDE]
60 µg/mL (≈ 114 µM) | 50 µg/mL (≈ 94.8 µM) | 90 µg/mL (≈ 171 µM) | 65 µg/mL (≈ 123 µM) | 65 µg/mL (≈ 123 µM) | 95 µg/mL (≈ 180 µM) | 60 µg/mL (≈ 114 µM) | CC(=O)Nc1ccc(S(=O)(=O)NCc2nc3ccccc3c(=O)n2-c2ccc(Br)cc2)cc1
80 µg/mL (≈ 162 µM) | 65 µg/mL (≈ 132 µM) | 115 µg/mL (≈ 233 µM) | 100 µg/mL (≈ 203 µM) | 75 µg/mL (≈ 152 µM) | 90 µg/mL (≈ 182 µM) | 85 µg/mL (≈ 172 µM) | CC(=O)Nc1ccc(S(=O)(=O)NCc2nc3ccccc3c(=O)n2-c2ccccc2[N+](=O)[O-])cc1
80 µg/mL (≈ 171 µM) | 55 µg/mL (≈ 118 µM) | 95 µg/mL (≈ 204 µM) | 85 µg/mL (≈ 182 µM) | 75 µg/mL (≈ 161 µM) | 95 µg/mL (≈ 204 µM) | 80 µg/mL (≈ 171 µM) | CC(=O)Nc1ccc(S(=O)(=O)NCc2nc3ccccc3c(=O)n2-c2ccc(F)cc2)cc1
80 µg/mL (≈ 173 µM) | 75 µg/mL (≈ 162 µM) | 120 µg/mL (≈ 259 µM) | 115 µg/mL (≈ 249 µM) | 80 µg/mL (≈ 173 µM) | 105 µg/mL (≈ 227 µM) | 95 µg/mL (≈ 205 µM) | CC(=O)Nc1ccc(S(=O)(=O)NCc2nc3ccccc3c(=O)n2-c2cccc(C)c2)cc1

The remaining lines, values behind:

Compound | MIC (Candida albicans) | MIC (Aspergillus niger) | MIC (Klebsiella pneumoniae) | MIC (Pseudomonas aeruginosa) | MIC (Escherichia coli) | MIC (Bacillus cereus) | MIC (Staphylococcus aureus)
Nc1ccc(S(=O)(=O)NCc2nc3ccccc3c(=O)n2-c2ccccc2F)cc1 | 65 µg/mL (≈ 153 µM) | 55 µg/mL (≈ 130 µM) | 95 µg/mL (≈ 224 µM) | 70 µg/mL (≈ 165 µM) | 65 µg/mL (≈ 153 µM) | 90 µg/mL (≈ 212 µM) | 65 µg/mL (≈ 153 µM)
Nc1ccc(S(=O)(=O)NCc2nc3ccccc3c(=O)n2-c2cccc(Cl)c2)cc1 | 55 µg/mL (≈ 125 µM) | 50 µg/mL (≈ 113 µM) | 80 µg/mL (≈ 181 µM) | 55 µg/mL (≈ 125 µM) | 50 µg/mL (≈ 113 µM) | 65 µg/mL (≈ 147 µM) | 55 µg/mL (≈ 125 µM)
CC(=O)Nc1ccc(S(=O)(=O)NCc2nc3ccccc3c(=O)n2-c2ccccc2Br)cc1 | 70 µg/mL (≈ 133 µM) | 60 µg/mL (≈ 114 µM) | 95 µg/mL (≈ 180 µM) | 75 µg/mL (≈ 142 µM) | 65 µg/mL (≈ 123 µM) | 95 µg/mL (≈ 180 µM) | 70 µg/mL (≈ 133 µM)
COc1ccccc1-n1c(CNS(=O)(=O)c2ccc(NC(C)=O)cc2)nc2ccccc2c1=O | 80 µg/mL (≈ 167 µM) | 70 µg/mL (≈ 146 µM) | 105 µg/mL (≈ 219 µM) | 110 µg/mL (≈ 230 µM) | 80 µg/mL (≈ 167 µM) | 95 µg/mL (≈ 199 µM) | 90 µg/mL (≈ 188 µM)
Nc1ccc(S(=O)(=O)NCc2nc3ccccc3c(=O)n2-c2ccc(Cl)cc2)cc1 | 45 µg/mL (≈ 102 µM) | 40 µg/mL (≈ 90.7 µM) | 75 µg/mL (≈ 170 µM) | 50 µg/mL (≈ 113 µM) | 45 µg/mL (≈ 102 µM) | 55 µg/mL (≈ 125 µM) | 45 µg/mL (≈ 102 µM)
Cc1ccc(-n2c(CNS(=O)(=O)c3ccc(N)cc3)nc3ccccc3c2=O)cc1 | 80 µg/mL (≈ 190 µM) | 75 µg/mL (≈ 178 µM) | 90 µg/mL (≈ 214 µM) | 70 µg/mL (≈ 166 µM) | 65 µg/mL (≈ 155 µM) | 95 µg/mL (≈ 226 µM) | 80 µg/mL (≈ 190 µM)
CC(=O)Nc1ccc(S(=O)(=O)NCc2nc3ccccc3c(=O)n2-c2cccc([N+](=O)[O-])c2)cc1 | 75 µg/mL (≈ 152 µM) | 60 µg/mL (≈ 122 µM) | 110 µg/mL (≈ 223 µM) | 95 µg/mL (≈ 193 µM) | 70 µg/mL (≈ 142 µM) | 80 µg/mL (≈ 162 µM) | 80 µg/mL (≈ 162 µM)
Nc1ccc(S(=O)(=O)NCc2nc3ccccc3c(=O)n2-c2ccc(Br)cc2)cc1 | 55 µg/mL (≈ 113 µM) | 45 µg/mL (≈ 92.7 µM) | 75 µg/mL (≈ 155 µM) | 50 µg/mL (≈ 103 µM) | 50 µg/mL (≈ 103 µM) | 65 µg/mL (≈ 134 µM) | 55 µg/mL (≈ 113 µM)
CC(=O)Nc1ccc(S(=O)(=O)NCc2nc3ccccc3c(=O)n2Nc2ccccc2)cc1 | 120 µg/mL (≈ 259 µM) | 105 µg/mL (≈ 227 µM) | 145 µg/mL (≈ 313 µM) | 125 µg/mL (≈ 270 µM) | 115 µg/mL (≈ 248 µM) | 130 µg/mL (≈ 280 µM) | 100 µg/mL (≈ 216 µM)
Cc1cccc(-n2c(CNS(=O)(=O)c3ccc(N)cc3)nc3ccccc3c2=O)c1 | 95 µg/mL (≈ 226 µM) | 85 µg/mL (≈ 202 µM) | 115 µg/mL (≈ 273 µM) | 85 µg/mL (≈ 202 µM) | 65 µg/mL (≈ 155 µM) | 100 µg/mL (≈ 238 µM) | 85 µg/mL (≈ 202 µM)
CC(=O)Nc1ccc(S(=O)(=O)NCc2nc3ccccc3c(=O)n2-c2ccccc2F)cc1 | 85 µg/mL (≈ 182 µM) | 70 µg/mL (≈ 150 µM) | 95 µg/mL (≈ 204 µM) | 95 µg/mL (≈ 204 µM) | 80 µg/mL (≈ 171 µM) | 105 µg/mL (≈ 225 µM) | 85 µg/mL (≈ 182 µM)
COc1cccc(-n2c(CNS(=O)(=O)c3ccc(NC(C)=O)cc3)nc3ccccc3c2=O)c1 | 70 µg/mL (≈ 146 µM) | 65 µg/mL (≈ 136 µM) | 110 µg/mL (≈ 230 µM) | 100 µg/mL (≈ 209 µM) | 75 µg/mL (≈ 157 µM) | 90 µg/mL (≈ 188 µM) | 85 µg/mL (≈ 178 µM)
CC(=O)Nc1ccc(S(=O)(=O)NCc2nc3ccccc3c(=O)n2-c2ccc(Cl)cc2)cc1 | 65 µg/mL (≈ 135 µM) | 55 µg/mL (≈ 114 µM) | 85 µg/mL (≈ 176 µM) | 65 µg/mL (≈ 135 µM) | 60 µg/mL (≈ 124 µM) | 90 µg/mL (≈ 186 µM) | 60 µg/mL (≈ 124 µM)
CC1(C)S[C@@H]2[C@H](NC(=O)[C@H](N)c3ccccc3)C(=O)N2[C@H]1C(=O)O [AMPICILLIN] | – | – | 85 µg/mL (≈ 243 µM) | 55 µg/mL (≈ 157 µM) | 50 µg/mL (≈ 143 µM) | 60 µg/mL (≈ 172 µM) | 45 µg/mL (≈ 129 µM)
Cc1ccccc1-n1c(CNS(=O)(=O)c2ccc(N)cc2)nc2ccccc2c1=O | 100 µg/mL (≈ 238 µM) | 90 µg/mL (≈ 214 µM) | 100 µg/mL (≈ 238 µM) | 80 µg/mL (≈ 190 µM) | 70 µg/mL (≈ 166 µM) | 105 µg/mL (≈ 250 µM) | 90 µg/mL (≈ 214 µM)
Nc1ccc(S(=O)(=O)NCc2nc3ccccc3c(=O)n2-c2ccccc2Cl)cc1 | 60 µg/mL (≈ 136 µM) | 50 µg/mL (≈ 113 µM) | 90 µg/mL (≈ 204 µM) | 60 µg/mL (≈ 136 µM) | 55 µg/mL (≈ 125 µM) | 90 µg/mL (≈ 204 µM) | 60 µg/mL (≈ 136 µM)
Nc1ccc(S(=O)(=O)NCc2nc3ccccc3c(=O)n2-c2ccccc2Br)cc1 | 55 µg/mL (≈ 113 µM) | 45 µg/mL (≈ 92.7 µM) | 85 µg/mL (≈ 175 µM) | 65 µg/mL (≈ 134 µM) | 55 µg/mL (≈ 113 µM) | 70 µg/mL (≈ 144 µM) | 55 µg/mL (≈ 113 µM)
Nc1ccc(S(=O)(=O)NCc2nc3ccccc3c(=O)n2-c2cccc(Br)c2)cc1 | 45 µg/mL (≈ 92.7 µM) | 40 µg/mL (≈ 82.4 µM) | 75 µg/mL (≈ 155 µM) | 55 µg/mL (≈ 113 µM) | 50 µg/mL (≈ 103 µM) | 60 µg/mL (≈ 124 µM) | 50 µg/mL (≈ 103 µM)
CC(=O)N1CCN(c2ccc(OCC3COC(Cn4ccnc4)(c4ccc(Cl)cc4Cl)O3)cc2)CC1 (centres undefined) [KETOCONAZOLE] | 50 µg/mL (≈ 94.1 µM) | 40 µg/mL (≈ 75.3 µM) | – | – | – | – | –
